Measurements from the NIST ThermoML archive (doi:10.1021/je049778g).
± gives the expanded uncertainty stated by the source.

Conditions: Liquid; for mass density: 298.15 K, 101.33 kPa

Structure (SMILES): CO [methanol]
- mass density: 786.5 ± 0.3 kg/m3
- Normal boiling temperature: 64.52 ± 0.03 °C

Structure (SMILES): CCO [ethanol]
- mass density: 785.1 ± 0.3 kg/m3
- Normal boiling temperature: 78.31 ± 0.03 °C

Structure (SMILES): CC(C)O [propan-2-ol]
- mass density: 780.8 ± 0.3 kg/m3
- Normal boiling temperature: 82.26 ± 0.03 °C

Structure (SMILES): CCCO [propan-1-ol]
- mass density: 799.5 ± 0.2 kg/m3
- Normal boiling temperature: 97.04 ± 0.03 °C
